Here are results for one compound from patent EP3884941A1, “INFLAMMASOME INHIBITORS AND USE THEREOF” (CENTRO DE INVESTIGACION PRINCIPE FELIPE, priority 2020, dated 2021).

SMILES strings stand for the structures.

One assay deals with T1, Recombinant caspase-1 (Homo sapiens, UniProt P29466).
T1 sequence (P29466 120-297 limits assumed): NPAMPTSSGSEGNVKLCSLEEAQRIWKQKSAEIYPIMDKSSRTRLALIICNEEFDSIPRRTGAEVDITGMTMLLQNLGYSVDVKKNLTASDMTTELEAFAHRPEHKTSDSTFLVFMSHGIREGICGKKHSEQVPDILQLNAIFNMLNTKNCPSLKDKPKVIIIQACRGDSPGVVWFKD
T1 sequence (P29466 317-404 limits assumed): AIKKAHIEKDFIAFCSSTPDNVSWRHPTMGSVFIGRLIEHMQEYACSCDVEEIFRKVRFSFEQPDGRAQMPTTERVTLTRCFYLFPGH
The assay is described as follows: caspase-1 in vitro activation assay (secondary screening). Format: biochemical. Particulars: preactivated recombinant caspase-1. How it is done: Recombinant caspase-1 (50 nM) was incubated with the indicated concentrations of compounds for 20 min at RT in Assay Buffer. Then fluorogenic substrate Ac-WEHD-AFC (80 µM) was added, and activity was monitored in a Wallac Victor workstation. Data are reported as the percentage of inhibition compared with the absence of the inhibitor.

Another assay addresses T2, caspase-9 (Homo sapiens, UniProt P55211).
T2 sequence (P55211 1-416): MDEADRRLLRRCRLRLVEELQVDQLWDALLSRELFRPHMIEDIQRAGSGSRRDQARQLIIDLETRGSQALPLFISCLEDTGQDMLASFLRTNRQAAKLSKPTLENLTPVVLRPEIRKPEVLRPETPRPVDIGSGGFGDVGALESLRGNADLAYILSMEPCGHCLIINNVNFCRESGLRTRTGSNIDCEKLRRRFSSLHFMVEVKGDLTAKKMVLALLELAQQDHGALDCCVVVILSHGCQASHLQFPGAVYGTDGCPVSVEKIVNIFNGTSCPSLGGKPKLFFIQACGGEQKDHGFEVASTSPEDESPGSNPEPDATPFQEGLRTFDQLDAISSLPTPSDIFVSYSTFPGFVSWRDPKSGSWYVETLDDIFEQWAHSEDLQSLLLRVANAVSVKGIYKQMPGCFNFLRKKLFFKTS
The assay is described as follows: caspase-9 activity assay (Na-citrate pre-activated). Format: biochemical. Particulars: recombinant caspase-9; MM01 5 µM (Figure 2B). How it is done: Caspase-9 was activated with kosmotropic salts, in particular with Na-citrate. Briefly, 5 µM caspase-9 was pre-activated for 20 min in SC buffer (50 mM Na2HPO4, 150 mM NaCl, 1.5% sucrose, 0.05% CHAPS, 10 mM DTT, 0.7 M Na-citrate, pH 7.4) at RT. Once pre-activated, the complete reaction was diluted to 100 nM caspase-9 in assay buffer without Na-Citrate and incubated 20 min at RT in the presence or absence of compounds. Enzyme activity was monitored by adding the Ac-LEHD-afc substrate (40 µM) using a Victor 2 spectrofluorimeter.

In the next assay the test system is NLRP3 inflammasome. The assay is described as follows: murine peritoneal macrophages cellular assay, LPS plus ATP. Format: cell-based, Mice (BALB/c). How it is done: Mice (BALB/c) were euthanized, and 5 ml of cold medium was injected (20G needle) into the peritoneal region. The aspirated fluid from peritoneum was centrifuged for 10 min at 400 × g and the cell pellet resuspended in DMEM/F12-10 (1 ml). 40000 cells/well were plated in 24-well plates. Cells were allowed to adhere to the plate by culturing them 2 h at 37°C and then, non-adherent cells were removed by gently washing three times with warm PBS. Macrophages were primed for 4 h with 100 ng/ml pure LPS (Alexis Biochemicals Corporation), in serum-free IMDM medium followed by 30 min with 5 mM ATP. Supernatants were harvested and clarified by centrifugation at 1500 rpm at RT and cytokine, and caspase-1 activation analysis was performed as previously described in Example 3.

Another assay has as its system human NLRP1 inflammasome. The assay is described as follows: NLRP1 inflammasome activation, LPS plus MDP, THP-1 cells. Format: cell-based. The method, then: (§1) The materials and methods employed in these experiments are now described. The molecules were evaluated in the THP-1, or PMA-differentiated THP-1 cells (50 nM PMA for 24h) as described in Example 3. To stimulate NLRP1 inflammasome, cells were either mock-treated or primed with compounds at the indicated concentrations for 30 min, followed by treatment with 100 ng/mL LPS (Sigma) and 50 µg/ml MDP (Sigma) for 6 h at 37°C. In the case of NLRC4 inflammasome induction, cells were pretreated with the compounds for 30 min and then cells were stimulated for 3 h with Salmonella Typhimurium (MOI 5). To induce AIM2 inflammasome, cells were pretreated in the same conditions as before and transfected with poly(dA:dT) (200 µg/ml; Sigma) overnight using Lipofectamine 2000 (Invitrogen). Both IL-1β secretion and the release of IL-18 were monitored as previously described in Example 3.

The next assay deals with AIM2 inflammasome. The assay is described as follows: AIM2 inflammasome activation, poly(dA:dT), PMA-differentiated THP-1 cells. Format: cell-based, human. The following applies: PMA-differentiated THP-1, poly(dA:dT) 200 µg/ml; MM01 10 µM. The method, then: as §1
The subject of a further assay is NLRC4 inflammasome. The assay is described as follows: NLRC4 inflammasome activation, Salmonella Typhimurium, THP-1 cells. Format: cell-based, human. Particulars: MM01 10 µM. The method, then:
as §1

Assay [1] concerns NLRP3 activation in MSU-induced peritonitis. The assay is described as follows: MSU-induced peritonitis mouse model. The following applies: 10 mg/kg i.p. 30 min before MSU 2 mg/mouse i.p. Format: in vivo, C57BL/6 mice. The method, then: We next evaluated the efficacy of MM01 in a murine MSU-induced peritonitis model. (Spalinger MR et al. Bio-protocol 2018; 8(5): e2754). Mono-sodium urate (MSU; InvivoGen) crystals are potent activators of the NLRP3 receptor. Upon activation, NLRP3 induces the formation of inflammasome complex, which lead to the production and release of mature IL-1β. In the early phase of peritonitis, the number of infiltrating neutrophils correlates with the production of mature IL-1β. MM01 was injected intraperitoneal 30 min before MSU crystals i.p. injection.
In vivo model was performed according to the protocol approved by the Institutional Animal Ethical Committee of CIPF. C57BL/6 mice were injected i.p. with 10 mg/kg MM01 or vehicle 30 min before i.p. injection of MSU (2 mg MSU crystals in 200 µl sterile PBS). After 6 h, mice were sacrificed, and peritoneal lavage with 5 ml of PBS was performed. Cytokine IL-1β secretion was determined by ELISA (#DY401 R&D Systems) and neutrophil content measured in ACVLAB Laboratorio Valencia.

`C=CCN1C(=O)/C(=C2/C(=O)Nc3ccccc32)SC1=S` [MM01]: the caspase-1 activity entry at Recombinant caspase-1 was “do not act on”. On caspase-9, the caspase-9 activity entry is reported as “do not act on”. In the assay on NLRP3 inflammasome, the TNF-α release result is listed as “not correlated with a significant reduction” and the “release of LDH” value is listed as “decreased”. In the assay with NLRP3 inflammasome (at 5 and 10 µM of MM01), the IL-1β release entry is “significant inhibition” and the IL-6 release entry is on record as “significant inhibition”. In addition, the IL-18 release entry with human NLRP1 inflammasome (THP-1, LPS 100 ng/ml + MDP 50 µg/ml) is “avoided”. For the same compound, the IL-1β release result in the assay on human NLRP1 inflammasome (THP-1, LPS 100 ng/ml + MDP 50 µg/ml, MM01 1, 2.5 or 5 µM) is recorded as “avoided”. In the assay with human NLRP1 inflammasome (THP-1, LPS 100 ng/ml + MDP 50 µg/ml, pretreatment), the procaspase-1 activation result is “avoided”. For the same compound, the pyroptotic cell death result with human NLRP1 inflammasome (THP-1, LPS + MDP, LDH release) is given as “protected”. Also, in the assay with AIM2 inflammasome, the IL-1β secretion entry is reported as “significantly decreased”. Also, in the assay with NLRC4 inflammasome (THP-1, Salmonella infection (MOI 5)), the “cytokine maturation and release” value is on record as “impaired”. The pyroptosis entry in the assay with NLRC4 inflammasome (THP-1, Salmonella infection, LDH) is given as “decrease”. The neutrophil recruitment entry in assay [1] (peritoneal cavity after 6 h) was “efficiently suppressed”. Also, the “MSU injection-induced IL-1β production” value in assay [1] (peritoneal lavage after 6 h, ELISA) was “efficiently suppressed”.
